Reference: PubChem BioAssay (NCI)
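Growth conditions: 96-well plates. Treatment: test compound, 48 hours, 5 concentrations. Analysis: linear interpolation between bracketing concentrations; unreached endpoints set to highest concentration. At the GI50, growth is halved. TGI: total growth inhibition.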

Experiments:
Experiment in all cases: inhibition of tumour cell growth, NCI panel, 48 h
786-0 renal = tested on: 786-0 renal
A498 renal = tested on: A498 renal
A549 NSCLC = tested on: A549 NSCLC
ACHN renal = tested on: ACHN renal
CAKI-1 renal = tested on: CAKI-1 renal
CCRF-CEM leukemia = tested on: CCRF-CEM leukemia
COLO 205 colon = tested on: COLO 205 colon
DLD-1 colon = tested on: DLD-1 colon
DMS 114 small cell lung = tested on: DMS 114 small cell lung
DMS 273 small cell lung = tested on: DMS 273 small cell lung
EKVX NSCLC = tested on: EKVX NSCLC
HCC-2998 colon = tested on: HCC-2998 colon
HCT-116 colon = tested on: HCT-116 colon
HCT-15 colon = tested on: HCT-15 colon
HL-60(TB) leukemia = tested on: HL-60(TB) leukemia
HOP-18 NSCLC = tested on: HOP-18 NSCLC
HOP-62 NSCLC = tested on: HOP-62 NSCLC
HOP-92 NSCLC = tested on: HOP-92 NSCLC
HT29 colon = tested on: HT29 colon
IGROV1 ovarian = tested on: IGROV1 ovarian
K-562 leukemia = tested on: K-562 leukemia
KM12 colon = tested on: KM12 colon
KM20L2 colon = tested on: KM20L2 colon
LOX IMVI melanoma = tested on: LOX IMVI melanoma
LXFL 529 NSCLC = tested on: LXFL 529 NSCLC
M14 melanoma = tested on: M14 melanoma
M19-MEL melanoma = tested on: M19-MEL melanoma
MALME-3M melanoma = tested on: MALME-3M melanoma
MOLT-4 leukemia = tested on: MOLT-4 leukemia
NCI-H226 lung = tested on: NCI-H226 lung
NCI-H23 lung = tested on: NCI-H23 lung
NCI-H460 lung = tested on: NCI-H460 lung
OVCAR-3 ovarian = tested on: OVCAR-3 ovarian
OVCAR-4 ovarian = tested on: OVCAR-4 ovarian
OVCAR-5 ovarian = tested on: OVCAR-5 ovarian
OVCAR-8 ovarian = tested on: OVCAR-8 ovarian
RPMI-8226 leukemia = tested on: RPMI-8226 leukemia
SF-268 CNS = tested on: SF-268 CNS
SF-295 CNS = tested on: SF-295 CNS
SF-539 CNS = tested on: SF-539 CNS
SK-MEL-2 melanoma = tested on: SK-MEL-2 melanoma
SK-MEL-28 melanoma = tested on: SK-MEL-28 melanoma
SK-MEL-5 melanoma = tested on: SK-MEL-5 melanoma
SK-OV-3 ovarian = tested on: SK-OV-3 ovarian
SN12C renal = tested on: SN12C renal
SNB-19 CNS = tested on: SNB-19 CNS
SNB-75 CNS = tested on: SNB-75 CNS
SNB-78 CNS = tested on: SNB-78 CNS
SR leukemia = tested on: SR leukemia
SW-620 colon = tested on: SW-620 colon
TK-10 renal = tested on: TK-10 renal
U251 CNS = tested on: U251 CNS
UACC-257 melanoma = tested on: UACC-257 melanoma
UACC-62 melanoma = tested on: UACC-62 melanoma
UO-31 renal = tested on: UO-31 renal
XF 498 CNS = tested on: XF 498 CNS
NCI-H522 lung = tested on: NCI-H522 lung
RXF 393 renal = tested on: RXF 393 renal

Structure (SMILES): COc1cccc(/C=N/[N-]C(=O)c2ccncc2)c1[O-].[Ni+2].[OH3+]
- GI50 (786-0 renal): > 100 µM
- TGI (786-0 renal): > 100 µM
- GI50 (A498 renal): > 100 µM
- TGI (A498 renal): > 100 µM
- GI50 (A549 NSCLC): > 100 µM
- TGI (A549 NSCLC): > 100 µM
- GI50 (ACHN renal): > 100 µM
- TGI (ACHN renal): > 100 µM
- GI50 (CAKI-1 renal): > 100 µM
- TGI (CAKI-1 renal): > 100 µM
- GI50 (CCRF-CEM leukemia): > 100 µM
- TGI (CCRF-CEM leukemia): > 100 µM
- GI50 (COLO 205 colon): > 100 µM
- TGI (COLO 205 colon): > 100 µM
- GI50 (DLD-1 colon): > 100 µM
- TGI (DLD-1 colon): > 100 µM
- GI50 (DMS 114 small cell lung): > 100 µM
- TGI (DMS 114 small cell lung): > 100 µM
- GI50 (DMS 273 small cell lung): > 100 µM
- TGI (DMS 273 small cell lung): > 100 µM
- GI50 (EKVX NSCLC): > 100 µM
- TGI (EKVX NSCLC): > 100 µM
- GI50 (HCC-2998 colon): > 100 µM
- TGI (HCC-2998 colon): > 100 µM
- GI50 (HCT-116 colon): > 100 µM
- TGI (HCT-116 colon): > 100 µM
- GI50 (HCT-15 colon): > 100 µM
- TGI (HCT-15 colon): > 100 µM
- GI50 (HL-60(TB) leukemia): > 100 µM
- TGI (HL-60(TB) leukemia): > 100 µM
- GI50 (HOP-18 NSCLC): > 100 µM
- TGI (HOP-18 NSCLC): > 100 µM
- GI50 (HOP-62 NSCLC): > 100 µM
- TGI (HOP-62 NSCLC): > 100 µM
- GI50 (HOP-92 NSCLC): > 100 µM
- TGI (HOP-92 NSCLC): > 100 µM
- GI50 (HT29 colon): > 100 µM
- TGI (HT29 colon): > 100 µM
- GI50 (IGROV1 ovarian): > 100 µM
- TGI (IGROV1 ovarian): > 100 µM
- GI50 (K-562 leukemia): > 100 µM
- TGI (K-562 leukemia): > 100 µM
- GI50 (KM12 colon): > 100 µM
- TGI (KM12 colon): > 100 µM
- GI50 (KM20L2 colon): > 100 µM
- TGI (KM20L2 colon): > 100 µM
- GI50 (LOX IMVI melanoma): > 100 µM
- TGI (LOX IMVI melanoma): > 100 µM
- GI50 (LXFL 529 NSCLC): > 100 µM
- TGI (LXFL 529 NSCLC): > 100 µM
- GI50 (M14 melanoma): > 100 µM
- TGI (M14 melanoma): > 100 µM
- GI50 (M19-MEL melanoma): > 100 µM
- TGI (M19-MEL melanoma): > 100 µM
- GI50 (MALME-3M melanoma): > 100 µM
- TGI (MALME-3M melanoma): > 100 µM
- GI50 (MOLT-4 leukemia): > 100 µM
- TGI (MOLT-4 leukemia): > 100 µM
- GI50 (NCI-H226 lung): > 100 µM
- TGI (NCI-H226 lung): > 100 µM
- GI50 (NCI-H23 lung): > 100 µM
- TGI (NCI-H23 lung): > 100 µM
- GI50 (NCI-H460 lung): > 100 µM
- TGI (NCI-H460 lung): > 100 µM
- GI50 (OVCAR-3 ovarian): > 100 µM
- TGI (OVCAR-3 ovarian): > 100 µM
- GI50 (OVCAR-4 ovarian): > 100 µM
- TGI (OVCAR-4 ovarian): > 100 µM
- GI50 (OVCAR-5 ovarian): > 100 µM
- TGI (OVCAR-5 ovarian): > 100 µM
- GI50 (OVCAR-8 ovarian): > 100 µM
- TGI (OVCAR-8 ovarian): > 100 µM
- GI50 (RPMI-8226 leukemia): > 100 µM
- TGI (RPMI-8226 leukemia): > 100 µM
- GI50 (SF-268 CNS): > 100 µM
- TGI (SF-268 CNS): > 100 µM
- GI50 (SF-295 CNS): > 100 µM
- TGI (SF-295 CNS): > 100 µM
- GI50 (SF-539 CNS): > 100 µM
- TGI (SF-539 CNS): > 100 µM
- GI50 (SK-MEL-2 melanoma): > 100 µM
- TGI (SK-MEL-2 melanoma): > 100 µM
- GI50 (SK-MEL-28 melanoma): > 100 µM
- TGI (SK-MEL-28 melanoma): > 100 µM
- GI50 (SK-MEL-5 melanoma): > 100 µM
- TGI (SK-MEL-5 melanoma): > 100 µM
- GI50 (SK-OV-3 ovarian): > 100 µM
- TGI (SK-OV-3 ovarian): > 100 µM
- GI50 (SN12C renal): > 100 µM
- TGI (SN12C renal): > 100 µM
- GI50 (SNB-19 CNS): > 100 µM
- TGI (SNB-19 CNS): > 100 µM
- GI50 (SNB-75 CNS): > 100 µM
- TGI (SNB-75 CNS): > 100 µM
- GI50 (SNB-78 CNS): > 100 µM
- TGI (SNB-78 CNS): > 100 µM
- GI50 (SR leukemia): > 100 µM
- TGI (SR leukemia): > 100 µM
- GI50 (SW-620 colon): > 100 µM
- TGI (SW-620 colon): > 100 µM
- GI50 (TK-10 renal): > 100 µM
- TGI (TK-10 renal): > 100 µM
- GI50 (U251 CNS): > 100 µM
- TGI (U251 CNS): > 100 µM
- GI50 (UACC-257 melanoma): > 100 µM
- TGI (UACC-257 melanoma): > 100 µM
- GI50 (UACC-62 melanoma): > 100 µM
- TGI (UACC-62 melanoma): > 100 µM
- GI50 (UO-31 renal): > 100 µM
- TGI (UO-31 renal): > 100 µM
- GI50 (XF 498 CNS): > 100 µM
- TGI (XF 498 CNS): > 100 µM

Structure (SMILES): CCOc1ccc(N=Nc2ccc3oc(=O)c(/C(C)=N/NC(=O)CC(=O)Nc4cccc(OC)c4)cc3c2)cc1
- TGI (786-0 renal): 22.3 µM
- TGI (A549 NSCLC): > 74.6 µM
- TGI (ACHN renal): 51.6 µM
- TGI (CAKI-1 renal): > 45.4 µM
- TGI (CCRF-CEM leukemia): 21.6 µM
- TGI (COLO 205 colon): 78.3 µM
- TGI (DLD-1 colon): 45.5 µM
- TGI (DMS 114 small cell lung): 44.5 µM
- TGI (DMS 273 small cell lung): > 71.2 µM
- TGI (EKVX NSCLC): 55.5 µM
- TGI (HCC-2998 colon): 30.2 µM
- TGI (HCT-116 colon): 33.7 µM
- TGI (HCT-15 colon): > 86.3 µM
- TGI (HL-60(TB) leukemia): 16.1 µM
- TGI (HOP-18 NSCLC): 74.4 µM
- TGI (HOP-62 NSCLC): 31.7 µM
- TGI (HOP-92 NSCLC): 47.4 µM
- TGI (IGROV1 ovarian): 65.4 µM
- TGI (K-562 leukemia): 86.5 µM
- TGI (KM12 colon): > 56.9 µM
- TGI (KM20L2 colon): > 31.6 µM
- TGI (LOX IMVI melanoma): 60.5 µM
- TGI (LXFL 529 NSCLC): 33.5 µM
- TGI (M14 melanoma): 77.3 µM
- TGI (M19-MEL melanoma): > 88.1 µM
- TGI (MALME-3M melanoma): 37.5 µM
- TGI (MOLT-4 leukemia): > 56 µM
- TGI (NCI-H226 lung): > 73 µM
- TGI (NCI-H23 lung): 33.4 µM
- TGI (NCI-H460 lung): 46.3 µM
- TGI (NCI-H522 lung): 72.4 µM
- TGI (OVCAR-3 ovarian): 37 µM
- TGI (OVCAR-4 ovarian): 52.6 µM
- TGI (OVCAR-5 ovarian): > 70.3 µM
- TGI (OVCAR-8 ovarian): > 61.4 µM
- TGI (RPMI-8226 leukemia): 53.7 µM
- TGI (RXF 393 renal): 38.1 µM
- TGI (SF-268 CNS): 52.5 µM
- TGI (SF-295 CNS): 53.8 µM
- TGI (SF-539 CNS): 51 µM
- TGI (SK-MEL-2 melanoma): 45.7 µM
- TGI (SK-MEL-28 melanoma): 92 µM
- TGI (SK-MEL-5 melanoma): 58.4 µM
- TGI (SK-OV-3 ovarian): 82.3 µM
- TGI (SN12C renal): 30.8 µM
- TGI (SNB-19 CNS): > 79 µM
- TGI (SNB-78 CNS): > 95.9 µM
- TGI (SR leukemia): 10.1 µM
- TGI (SW-620 colon): 85.1 µM
- TGI (TK-10 renal): > 100 µM
- TGI (U251 CNS): 17.1 µM
- TGI (UACC-257 melanoma): 22 µM
- TGI (UACC-62 melanoma): 39.7 µM
- TGI (UO-31 renal): 29.5 µM
- TGI (XF 498 CNS): 42 µM
